Results reported in ChEMBL document CHEMBL1268849, “A conformationally constrained inhibitor with an enhanced potency for β-tryptase and stability against semicarbazide-sensitive amine oxidase (SSAO)” (Bioorg Med Chem Lett, 2010).

Assays:
[1] = Inhibition of human tryptase-beta using chromogenic substrate S-2366 after 30 mins by spectrophotometry
[2] = system: semicarbazide-sensitive amine oxidase (SSAO); assay: Chemical stability in presence of 56 ug/mL of human recombinant semicarbazide-sensitive amine oxidase assessed as compound remaining after 24 hrs by LC/MS method; assay type: physicochemical; conditions: read-out: Stability
[3] = Metabolic stability in guinea pig liver microsomes after 20 mins; assay type: ADME, Cavia porcellus, Microsome; conditions: read-out: Stability
Cytochrome P450 3A4 = Cytochrome P450 3A4 (Homo sapiens, UniProt P08684); assay: Inhibition of CYP3A4; assay type: ADME
Sequence of Cytochrome P450 3A4 (P08684 whole entry): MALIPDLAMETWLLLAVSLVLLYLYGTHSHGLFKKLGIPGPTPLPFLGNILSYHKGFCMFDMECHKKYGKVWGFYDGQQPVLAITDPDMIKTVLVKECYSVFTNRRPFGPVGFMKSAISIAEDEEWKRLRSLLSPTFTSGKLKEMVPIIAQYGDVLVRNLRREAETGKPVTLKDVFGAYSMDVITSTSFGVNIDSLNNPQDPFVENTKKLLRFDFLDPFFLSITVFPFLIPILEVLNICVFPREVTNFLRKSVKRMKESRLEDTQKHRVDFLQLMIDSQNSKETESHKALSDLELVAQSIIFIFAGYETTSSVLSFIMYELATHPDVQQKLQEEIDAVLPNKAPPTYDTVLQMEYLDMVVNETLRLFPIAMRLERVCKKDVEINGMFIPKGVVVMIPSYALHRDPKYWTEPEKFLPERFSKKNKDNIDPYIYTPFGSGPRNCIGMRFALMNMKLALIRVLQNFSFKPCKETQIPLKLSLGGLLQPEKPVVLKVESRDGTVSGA

[4] = Metabolic stability in human liver microsomes after 20 mins; assay type: ADME, Microsome; conditions: read-out: Stability
[5] = Metabolic stability in rat liver microsomes after 20 mins; assay type: ADME, Microsome; conditions: read-out: Stability
hERG (KCNH2) = hERG (KCNH2) (Homo sapiens, UniProt Q12809); assay: Inhibition of human ERG at 10 uM
Sequence of hERG (KCNH2) (Q12809 whole entry): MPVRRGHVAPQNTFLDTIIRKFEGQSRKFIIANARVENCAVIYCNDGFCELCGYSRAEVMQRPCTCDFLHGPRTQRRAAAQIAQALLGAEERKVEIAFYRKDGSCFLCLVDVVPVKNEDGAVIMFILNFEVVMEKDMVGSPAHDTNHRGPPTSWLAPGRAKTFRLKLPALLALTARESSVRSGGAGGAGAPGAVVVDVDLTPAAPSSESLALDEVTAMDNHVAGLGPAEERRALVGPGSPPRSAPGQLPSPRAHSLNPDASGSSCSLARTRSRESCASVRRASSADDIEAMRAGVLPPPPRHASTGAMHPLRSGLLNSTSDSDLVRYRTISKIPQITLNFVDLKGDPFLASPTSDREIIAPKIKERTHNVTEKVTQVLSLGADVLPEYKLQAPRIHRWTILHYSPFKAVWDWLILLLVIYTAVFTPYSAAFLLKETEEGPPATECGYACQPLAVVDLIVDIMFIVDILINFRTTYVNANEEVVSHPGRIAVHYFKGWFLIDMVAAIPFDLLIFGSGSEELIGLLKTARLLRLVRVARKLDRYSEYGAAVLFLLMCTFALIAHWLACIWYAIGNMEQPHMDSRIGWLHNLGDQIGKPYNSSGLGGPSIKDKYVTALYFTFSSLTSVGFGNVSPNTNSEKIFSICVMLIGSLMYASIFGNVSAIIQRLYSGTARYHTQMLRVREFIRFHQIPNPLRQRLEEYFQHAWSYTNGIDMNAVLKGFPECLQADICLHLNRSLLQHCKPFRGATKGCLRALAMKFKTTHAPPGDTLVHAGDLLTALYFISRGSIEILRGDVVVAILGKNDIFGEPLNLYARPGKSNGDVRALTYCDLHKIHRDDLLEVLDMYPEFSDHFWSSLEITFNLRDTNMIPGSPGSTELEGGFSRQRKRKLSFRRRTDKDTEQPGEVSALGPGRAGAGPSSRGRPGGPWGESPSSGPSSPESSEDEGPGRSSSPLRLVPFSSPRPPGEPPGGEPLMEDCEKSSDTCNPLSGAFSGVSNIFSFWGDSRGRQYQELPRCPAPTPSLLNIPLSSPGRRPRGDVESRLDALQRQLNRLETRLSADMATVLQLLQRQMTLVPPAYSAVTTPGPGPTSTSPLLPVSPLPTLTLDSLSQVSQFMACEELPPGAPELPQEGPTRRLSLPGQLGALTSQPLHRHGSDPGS

Row | SMILES | Ki [1] | remaining at 24 h [2] | remaining at 20 min [3] | INH (Cytochrome P450 3A4) | remaining at 20 min [4] | remaining at 20 min [5] | inhibition at 10 µM (hERG (KCNH2))
1 | COCCn1cc(C(=O)N2CCC(c3cc(CN)ccc3F)CC2)c2ccccc21 | 54.2 nM | 67% |  |  |  |  | 
2 | COCCn1cc(C(=O)N2CCC(c3cc(CN)ccc3F)CC2)c2c(C(=O)N(C)C)cccc21.Cl | 20 nM | 100% | 69% | > 30 µM | 67% | 92% | 16%
